Entries after “also recorded” stand apart in the source; their conditions may differ.
Columns and labels:
Format in all cases: in vivo, rat
[1] = system: castrate Sprague-Dawley male rats; assay: Androgenic activity, Hershberger test (ventral prostate weight); conditions: for Biological activity Potency Ratio: oral in 10% ethanol/sesame oil, methyltestosterone standard = 1.00, FIG. 11
Experimental: The androgenic activity was tested as follows (see, Hershberger et al., Proc. Soc. Exptl. Biol. Med., 83: 175-180 (1953)). Immature (approximately 21 day old) male rats of the Sprague-Dawley strain were orchidectomized under METOFANE® anesthesia and randomly assigned to groups of ten animals for each dose level of test material and vehicle controls. Animals were maintained under standard conditions of housing and had free access to food and water. Illumination was controlled for 14-hour periods of light and 10 hours of darkness. Test compounds were dissolved in 10% ethanol/sesame oil and administered by gavage (oral) or subcutaneous injection daily for seven consecutive days starting on the day of surgery. Animals were sacrificed 24 hours after the last dose and the ventral prostate and seminal vesicles excised, cleaned of fat and connective tissue, blotted on moist filter paper and weighed to the nearest 0.1 mg. Ventral prostate weight was used as the endpoint because ventral prostate is the more sensitive organ to androgenic stimulation.
Statistical analysis was performed by conventional methods using a PROPHET data management system operating on SUN Microsystems OS 4.1.1 (see e.g., Bliss, Cl (1952) The Statistics of Bioassay, New York, Academic Press; Hollister, C (1988), Nucleic Acids Research, 16:1873-1875.
Each data point represents the mean (n=10) and standard error of the mean (SEM) prostate weight for each dose level. The potency ratio and 95% confidence index are set forth below.

[2] = system: castrate Sprague-Dawley male rats; assay: Duration of androgenic activity after a single subcutaneous injection (ventral prostate weight, AUC); conditions: for AUC of ventral prostate weight (duration of androgenic activity), standards: historical data, 1.2 mg single subcutaneous injection, testosterone undecanoate in aqueous suspension, testosterone enanthate in sesame oil; for Duration of androgenic activity (in words): single subcutaneous injection in aqueous vehicle; for AUC of ventral prostate weight (duration of androgenic activity): 14 weeks
Experimental: Duration of androgenic activity was determined as follows. Immature (22 days of age) male rats of the Sprague-Dawley CD strain were orchidectomized under METOFANE anesthesia and randomly assigned to groups of forty or more animals. Animals were maintained under standard conditions of housing and had free access to food and water. Illumination was controlled for 14-hour periods of light and 10 hours of darkness. Animals received a single subcutaneous injection of 0.6 mg of test material in aqueous suspending vehicle (ASV) and/or an oily vehicle (10% ethanol/sesame oil, sesame oil containing 5 mg/ml chlorobutanol as a preservative or ethyl oleate) on the day of surgery. Controls received vehicle alone. Testosterone enanthate in sesame oil was used as a standard. In cases where the test material was not solid at room temperature, i.e., a wax or oil, 10% ethanol/sesame oil or ethyl oleate was used as a vehicle. Five rats from each group were sacrificed at weekly or biweekly intervals and seminal vesicle and ventral prostate glands were excised, cleaned of adherent fat and connective tissue and weighed to the nearest 0.1 mg. Ventral prostate weight was used as the endpoint because it is the more sensitive organ to androgenic stimulation. Area under the curve (AUC) was calculated by the trapezoidal rule.
Each data point represents the mean (n=5) and standard error of the mean (SEM) prostate weight for each time period. […] In FIG. 8, the data for 1.2 mg dose groups are shown together with historical data for testosterone undecanoate in aqueous suspension and testosterone enanthate in sesame oil as standards. Both testosterone undecanoate and testosterone enanthate are commercially available.

[3] = Serum levels of dimethandrolone (CDB-1321) and immunoreactive metabolites by radioimmunoassay; parameters: AUC of serum concentration of dimethandrolone and immunoreactive metabolites: unit not given here; conditions: for AUC of serum concentration of dimethandrolone and immunoreactive metabolites: n=5, FIG. 9
Experimental: Serum levels of testosterone and CDB-1321 were determined as follows. Rats from a duration of androgenic activity study were exsanguinated at autopsy, serum prepared by allowing blood to clot at room temperature and the sample frozen for subsequent radioimmunoassay. A radioimmunoassay for the free alcohol, 7a, 11β-dimethyl-19-nortestosterone, was developed using antisera generated in rabbits against the 3-carboxymethyloxime-BSA conjugate and employing the corresponding histamine conjugate for iodination as tracer.

[4] = system: luteinizing hormone (rLH); assay: Serum rLH in castrate male rats
Experimental: FIG. 14 depicts the serum levels of rLH as a function of time for groups 2 and 4 of the animals. Serum rLH were measured in the blood from castrate male rats following fourteen daily 12 mg/kg oral doses of CDB-4719A (dimethandrolone 17β-decylcarbonate, filled circles, group 2) or CDB-4521C (dimethandrolone 17β-undecanoate, open triangles, group 4) in 10% ethanol/sesame oil on days 0-13. Samples from weeks −1 to 6 or from weeks 7 to 9 and repeats were assayed as described in the protocols MEL-480AD using [^125I]-rLH or MEL-480AE, AG using [^125I]-rLH. The limit of detection shown as dotted line, or EC90, was the mean of 0.13, 0.14, or 0.16 in the first assay and 0.17, 0.22, or 0.21 ng/ml in the second series of assays based on 200 μl of serum per tube.
FIG. 15 depicts the serum levels of rLH as a function of time for groups 1 and 3 of the animals. Serum rLH were measured in the blood from castrate male rats following a single 12 mg/kg subcutaneous injection of CDB-4719A (dimethandrolone 17β-decylcarbonate, filled circles, group 1) or CDB-4521C (dimethandrolone 17β-undecanoate, open triangles, group 3) in an aqueous suspending vehicle on day 0. Samples from weeks −1 to 6 or from weeks 7 to 22 and repeats were assayed as described in the protocols MEL-480AD using [^125I]-rLH or MEL-480AE, AG, AH using [^125I]-rLH. The limit of detection shown as dotted line, or EC90, was the mean of 0.13, 0.14, or 0.16 in the first assay and 0.17, 0.22, or 0.21 ng/ml in the second series of assays based on 200 μl of serum per tube.
Carbonates of the invention, in embodiments, can be used to suppress luteinizing hormone in a mammal for extended periods of time. […] CDB-4719A (dimethandrolone 17β-decylcarbonate) was administered to castrate male rats, daily at 12 mg/kg oral doses, and CDB-4521C (dimethandrolone 17β-undecanoate) was administered in 10% ethanol/sesame oil, on days 0-13. […] This observation could have advantageous clinical implications, for example, in obtaining sustained suppression of the luteinizing hormone or hormone replacement therapy. In addition, this could have an advantage by providing a facile treatment using oral compositions such as tablets or capsules of the carbonates of the invention in suppressing hormone levels. Such treatment can be advantageous relative to a treatment involving parenteral (e.g., subcutaneous) administration of a drug such as the ester drug. Patient compliance is better with oral formulations than injections.
FIG. 15 provides a comparison between CDB-4719A (dimethandrolone 17β-decylcarbonate) and CDB-4521C (dimethandrolone 17β-undecanoate). A single dose (12 mg/kg) of the compound was administered to castrate male rats by subcutaneous injection in an aqueous suspending vehicle on day 0. The serum rLH concentration was monitored over a 22-week period and beyond.

[5] = fourteen daily 12 mg/kg oral doses in 10% ethanol/sesame oil, days 0-13, FIG. 14
[6] = single subcutaneous injection of 0.6 mg in aqueous suspending vehicle
[7] = single subcutaneous injection of 1.2 mg in aqueous suspending vehicle
[8] = oral, daily for 7 days in 10% ethanol/sesame oil, CDB 110 (methyltestosterone) = 1.000 assigned, FIG. 5, ranges did not pass all significance tests
[9] = subcutaneous injection, daily for 7 days, CBD-111 (testosterone) = 1.000 assigned, FIG. 6, footnote 2 values did not pass all significance tests

C[C@]12CCC(=O)C=C1CC[C@@H]1[C@@H]2CC[C@@]2(C)[C@H]1CC[C@]2(C)O [CDB-110B, methyltestosterone, reference compound]
Biological activity Potency Ratio [1]: 1.00 (assigned)

CCCCCCC(=O)O[C@H]1CC[C@H]2[C@@H]3CCC4=CC(=O)CC[C@]4(C)[C@H]3CC[C@]12C [CDB-112, testosterone enanthate, reference compound]
AUC of ventral prostate weight (duration of androgenic activity), standards [2]: 760 mg·week

C[C@@H]1CC2=CC(=O)CC[C@@H]2[C@@H]2[C@@H]1[C@@H]1CC[C@H](O)[C@@]1(C)C[C@@H]2C [CDB-1321, 7a, 11β-dimethyl-19-nortestosterone, reference compound]
Serum levels of the free alcohol after giving the free alcohol itself ([3]; first 3 weeks, limit of detection 63 pg/ml): barely above the limit of detection

CCCCCCCCCCC(=O)O[C@H]1CC[C@H]2[C@@H]3CCC4=CC(=O)CC[C@]4(C)[C@H]3CC[C@]12C [CDB-3122E, testosterone undecanoate, reference compound]
AUC of ventral prostate weight (duration of androgenic activity), standards [2]: 494 mg·week

CCCCCCCCCCC(=O)O[C@H]1CC[C@H]2[C@H]3[C@H]([C@@H](C)C[C@]12C)[C@H]1CCC(=O)C=C1C[C@H]3C [CDB-4521C, dimethandrolone 17β-undecanoate, reference compound]
Serum rLH after administration was discontinued [4, 5]: bounced back and increased beyond the pretreatment level | Serum rLH during administration [4, 5]: remained suppressed | Serum rLH up to 16 weeks post administration ([4]; single 12 mg/kg subcutaneous injection in aqueous suspending vehicle on day 0, FIG. 15): remains suppressed | Serum rLH after 16 weeks ([4]; single 12 mg/kg subcutaneous injection in aqueous suspending vehicle on day 0, monitored over 22 weeks, FIG. 15): rose after 16 weeks

COC(=O)O[C@H]1CC[C@H]2[C@H]3[C@H]([C@@H](C)C[C@]12C)[C@H]1CCC(=O)C=C1C[C@H]3C [CDB-4718, 17β-Methoxycarbonyloxy-7α,11β-dimethylestr-4-en-3-one]
AUC of serum concentration of dimethandrolone and immunoreactive metabolites [3, 6]: 2848 | AUC of serum concentration of dimethandrolone and immunoreactive metabolites [3, 7]: 3336 | Androgenic activity Potency Ratio [1, 8]: about two and one-half times | Androgenic activity Potency Ratio ([1]; oral, daily for 7 days in 10% ethanol/sesame oil, CDB 110 (methyltestosterone) = 1.000 assigned, FIG. 5, ranges did not pass all significance tests, listed as 4718): 2.609^1 | Androgenic activity Potency Ratio [1, 9]: 10.4-47.5 | Androgenic activity Potency Ratio ([1]; subcutaneous injection, daily for 7 days, CBD-111 (testosterone) = 1.000 assigned, FIG. 6, footnote 2 values did not pass all significance tests, listed as 4718): 10.4-47.5^1,2 | Duration of androgenic activity (in words) [2]: short duration of action | AUC of ventral prostate weight (duration of androgenic activity) [2, 6]: 581 mg·week | AUC of ventral prostate weight (duration of androgenic activity) [2, 7]: 789 mg·week

CCCCCCCCCCCCOC(=O)O[C@H]1CC[C@H]2[C@H]3[C@H]([C@@H](C)C[C@]12C)[C@H]1CCC(=O)C=C1C[C@H]3C [CDB-4730, 17β-Dodecyloxycarbonyloxy-7α,11β-dimethylestr-4-en-3-one]
Serum levels of dimethandrolone and immunoreactive metabolites over time ([3]; single subcutaneous dose of 0.6 or 1.2 mg per rat in aqueous suspending vehicle, FIG. 16): decreased with time as expected | Androgenic activity Potency Ratio [1, 8]: 0.97-3.82 | Androgenic activity Potency Ratio ([1]; oral, daily for 7 days in 10% ethanol/sesame oil, CDB 110 (methyltestosterone) = 1.000 assigned, FIG. 5, ranges did not pass all significance tests, listed as 4730): 0.97-3.82^1,2 | Potency as percent of the subcutaneous standard, testosterone ([1]; subcutaneous injection): 5% | Androgenic activity Potency Ratio [1, 9]: 0.05^1,2 | Duration of androgenic activity (in words) [2]: far more potent; also recorded: exhibited similar long-acting activity

CCCCCCOC(=O)O[C@H]1CC[C@H]2[C@H]3[C@H]([C@@H](C)C[C@]12C)[C@H]1CCC(=O)C=C1C[C@H]3C [CDB-4731, 17β-Hexyloxycarbonyloxy-7α,11β-dimethylestr-4-en-3-one]
Androgenic activity Potency Ratio [1, 8]: 1.18-3.27 | Androgenic activity Potency Ratio ([1]; oral, daily for 7 days in 10% ethanol/sesame oil, CDB 110 (methyltestosterone) = 1.000 assigned, FIG. 5, ranges did not pass all significance tests, listed as 4731): 1.18-3.27^1,2 | Androgenic activity Potency Ratio [1, 9]: 32 | Androgenic activity Potency Ratio ([1]; subcutaneous injection, daily for 7 days, CBD-111 (testosterone) = 1.000 assigned, FIG. 6, footnote 2 values did not pass all significance tests, listed as 4731): 32.0^1,2

CC1C[C@@]2(C)C(=CC[C@@H]2OC(=O)OC23CC4CC(CC(C4)C2)C3)[C@H]2[C@H]1[C@H]1CCC(=O)C=C1C[C@H]2C (stereo partly drawn) [CDB-4750A, 17β-Adamantyloxycarbonyloxy-7α,11-dimethylestra-4,14-dien-3-one]
AUC of ventral prostate weight (duration of androgenic activity) [2, 6]: 326 mg·week | AUC of ventral prostate weight (duration of androgenic activity) [2, 7]: 759 mg·week

CCCCCCCCCCCCOC(=O)OC1CC[C@H]2[C@@H]3CCC4=CC(=O)CC[C@@H]4[C@H]3[C@@H](C)C[C@]12C (stereo partly drawn) [CDB-4754, 11β-Methyl-17-dodecyloxycarbonyloxy estr-4-en-3-one]
AUC of ventral prostate weight (duration of androgenic activity) [2, 6]: 564 mg·week | AUC of ventral prostate weight (duration of androgenic activity) [2, 7]: 974 mg·week

CCCCCCCCCC(=O)OC1CCC2C3C(C)CC4=CC(=O)CCC4C3C(C)CC12C (stereo not drawn) [CDB-4756, dimethandrolone decanoate, reference compound]
Biological activity Potency Ratio [1]: 2.13-7.56

CCCCCCCCCCOC(=O)O[C@H]1CC[C@H]2[C@@H]3CCC4=CC(=O)CC[C@@H]4[C@H]3[C@@H](C)C[C@]12C [CDB-4757, 11β-Methyl-17β-decyloxycarbonyloxyestr-4-en-3-one]
Biological activity Potency Ratio [1]: 1.96
